# Organism: Rattus norvegicus
# Experiment: DrugMatrix - Regimen: Daily Repeat
# Assay type: toxicity, organism-based, Sprague-Dawley
# Set-up: regimen Daily Repeat, gender Male, age 6-8 weeks
# Conditions: in vivo, po, route oral GAVAGE, vehicle .5 % CMC; for ABSOLUTE BASOPHIL / ABSOLUTE EOSINOPHIL / ABSOLUTE LYMPHOCYTE / ABSOLUTE MONOCYTE / ABSOLUTE SEGMENTED NEUTROPHIL / BASOPHIL / EOSINOPHIL / ERYTHROCYTE COUNT / HEMATOCRIT / HEMOGLOBIN / LEUKOCYTE COUNT / LYMPHOCYTE / MEAN CORPUSCULAR HEMOGLOBIN / MEAN CORPUSCULAR HEMOGLOBIN CONCENTRATION / MEAN CORPUSCULAR VOLUME / MONOCYTE / NEUTROPHIL / NUCLEATED RED BLOOD CELLS / PLATELET COUNT: tissue Blood; for ALANINE AMINOTRANSFERASE / ALBUMIN / ALKALINE PHOSPHATASE / ASPARTATE AMINOTRANSFERASE / BLOOD UREA NITROGEN / CARBON DIOXIDE / CHLORIDE / CHOLESTEROL / CREATINE PHOSPHOKINASE / CREATININE / GLUCOSE / LACTATE DEHYDROGENASE / LIPASE / PHOSPHORUS / POTASSIUM / SODIUM / TOTAL BILIRUBIN / TOTAL PROTEIN / URIC ACID: tissue Plasma
# [1] = 0 mg/kg, 72 h, dose level Control, time 3 day
# [2] = 0 mg/kg, 120 h, dose level Control, time 5 day
# [3] = 88 mg/kg, 72 h, dose level Low, time 3 day
smiles,measurement,setting,value
CC(C)[C@H](N)C(=O)OCCOCn1cnc2c(=O)[nH]c(N)nc21 [VALACYCLOVIR],ABSOLUTE BASOPHIL,[1],0 CELLS/uL
same,ABSOLUTE EOSINOPHIL,[1],171.33 CELLS/uL
same,ABSOLUTE LYMPHOCYTE,[1],13776.5 CELLS/uL
same,ABSOLUTE MONOCYTE,[1],180.83 CELLS/uL
same,ABSOLUTE SEGMENTED NEUTROPHIL,[1],1121.33 CELLS/uL
same,BASOPHIL,[1],0%
same,EOSINOPHIL,[1],1%
same,ERYTHROCYTE COUNT,[1],5.56 x10E6/uL
same,HEMATOCRIT,[1],34.75%
same,HEMOGLOBIN,[1],13.68 G/DL
same,LEUKOCYTE COUNT,[1],15.25 x10E3/uL
same,LYMPHOCYTE,[1],90.17%
same,MEAN CORPUSCULAR HEMOGLOBIN,[1],24.6 pg
same,MEAN CORPUSCULAR HEMOGLOBIN CONCENTRATION,[1],39.4 G/DL
same,MEAN CORPUSCULAR VOLUME,[1],62.48 fL
same,MONOCYTE,[1],1.17%
same,NEUTROPHIL,[1],7.67%
same,NUCLEATED RED BLOOD CELLS,[1],0 /100WBC
same,PLATELET COUNT,[1],1342 x10E3/uL
same,ALANINE AMINOTRANSFERASE,[1],49.67 u/L
same,ALBUMIN,[1],4.15 G/DL
same,ALKALINE PHOSPHATASE,[1],346.83 u/L
same,ASPARTATE AMINOTRANSFERASE,[1],108.17 u/L
same,BLOOD UREA NITROGEN,[1],17.33 mg/dL
same,CARBON DIOXIDE,[1],25 mmol/L
same,CHLORIDE,[1],100.83 MEQ/L
same,CHOLESTEROL,[1],66.83 mg/dL
same,CREATINE PHOSPHOKINASE,[1],788 u/L
same,CREATININE,[1],0.18 mg/dL
same,GLUCOSE,[1],151.67 mg/dL
same,LACTATE DEHYDROGENASE,[1],982.5 u/L
same,LIPASE,[1],10.33 u/L
same,PHOSPHORUS,[1],11.23 mg/dL
same,POTASSIUM,[1],6.37 MEQ/L
same,SODIUM,[1],141.02 MEQ/L
same,TOTAL BILIRUBIN,[1],0.18 mg/dL
same,TOTAL PROTEIN,[1],5.9 G/DL
same,URIC ACID,[1],1.8 mg/dL
same,ABSOLUTE BASOPHIL,[2],0 CELLS/uL
same,ABSOLUTE EOSINOPHIL,[2],69 CELLS/uL
same,ABSOLUTE LYMPHOCYTE,[2],13632.83 CELLS/uL
same,ABSOLUTE MONOCYTE,[2],139.83 CELLS/uL
same,ABSOLUTE SEGMENTED NEUTROPHIL,[2],1225 CELLS/uL
same,BASOPHIL,[2],0%
same,EOSINOPHIL,[2],0.33%
same,ERYTHROCYTE COUNT,[2],5.52 x10E6/uL
same,HEMATOCRIT,[2],33.98%
same,HEMOGLOBIN,[2],13.22 G/DL
same,LEUKOCYTE COUNT,[2],15.07 x10E3/uL
same,LYMPHOCYTE,[2],90.83%
same,MEAN CORPUSCULAR HEMOGLOBIN,[2],23.95 pg
same,MEAN CORPUSCULAR HEMOGLOBIN CONCENTRATION,[2],38.9 G/DL
same,MEAN CORPUSCULAR VOLUME,[2],61.53 fL
same,MONOCYTE,[2],0.83%
same,NEUTROPHIL,[2],8%
same,NUCLEATED RED BLOOD CELLS,[2],0 /100WBC
same,PLATELET COUNT,[2],1196 x10E3/uL
same,ALANINE AMINOTRANSFERASE,[2],49.17 u/L
same,ALBUMIN,[2],4.2 G/DL
same,ALKALINE PHOSPHATASE,[2],352.33 u/L
same,ASPARTATE AMINOTRANSFERASE,[2],89.67 u/L
same,BLOOD UREA NITROGEN,[2],18 mg/dL
same,CARBON DIOXIDE,[2],27.67 mmol/L
same,CHLORIDE,[2],101 MEQ/L
same,CHOLESTEROL,[2],72.83 mg/dL
same,CREATINE PHOSPHOKINASE,[2],417.5 u/L
same,CREATININE,[2],0.18 mg/dL
same,GLUCOSE,[2],150.5 mg/dL
same,LACTATE DEHYDROGENASE,[2],517.33 u/L
same,LIPASE,[2],9 u/L
same,PHOSPHORUS,[2],11.87 mg/dL
same,POTASSIUM,[2],6.57 MEQ/L
same,SODIUM,[2],143.62 MEQ/L
same,TOTAL BILIRUBIN,[2],0.2 mg/dL
same,TOTAL PROTEIN,[2],6.08 G/DL
same,URIC ACID,[2],1.45 mg/dL
same,ABSOLUTE BASOPHIL,[3],0 CELLS/uL
same,ABSOLUTE EOSINOPHIL,[3],194 CELLS/uL
same,ABSOLUTE LYMPHOCYTE,[3],11636 CELLS/uL
same,ABSOLUTE MONOCYTE,[3],141 CELLS/uL
same,ABSOLUTE SEGMENTED NEUTROPHIL,[3],1129 CELLS/uL
same,BASOPHIL,[3],0%
same,EOSINOPHIL,[3],1.33%
same,ERYTHROCYTE COUNT,[3],5.5 x10E6/uL
same,HEMATOCRIT,[3],34.9%
same,HEMOGLOBIN,[3],13.63 G/DL
same,LEUKOCYTE COUNT,[3],13.1 x10E3/uL
same,LYMPHOCYTE,[3],89.33%
same,MEAN CORPUSCULAR HEMOGLOBIN,[3],24.77 pg
same,MEAN CORPUSCULAR HEMOGLOBIN CONCENTRATION,[3],39.07 G/DL
same,MEAN CORPUSCULAR VOLUME,[3],63.5 fL
same,MONOCYTE,[3],1%
same,NEUTROPHIL,[3],8.33%
same,NUCLEATED RED BLOOD CELLS,[3],0 /100WBC
same,PLATELET COUNT,[3],1139.67 x10E3/uL
